Test [1] deals with T1, System Xc^− cystine/glutamate antiporter (Homo sapiens, UniProt Q9UPY5).
T1 sequence (Q9UPY5 1-501): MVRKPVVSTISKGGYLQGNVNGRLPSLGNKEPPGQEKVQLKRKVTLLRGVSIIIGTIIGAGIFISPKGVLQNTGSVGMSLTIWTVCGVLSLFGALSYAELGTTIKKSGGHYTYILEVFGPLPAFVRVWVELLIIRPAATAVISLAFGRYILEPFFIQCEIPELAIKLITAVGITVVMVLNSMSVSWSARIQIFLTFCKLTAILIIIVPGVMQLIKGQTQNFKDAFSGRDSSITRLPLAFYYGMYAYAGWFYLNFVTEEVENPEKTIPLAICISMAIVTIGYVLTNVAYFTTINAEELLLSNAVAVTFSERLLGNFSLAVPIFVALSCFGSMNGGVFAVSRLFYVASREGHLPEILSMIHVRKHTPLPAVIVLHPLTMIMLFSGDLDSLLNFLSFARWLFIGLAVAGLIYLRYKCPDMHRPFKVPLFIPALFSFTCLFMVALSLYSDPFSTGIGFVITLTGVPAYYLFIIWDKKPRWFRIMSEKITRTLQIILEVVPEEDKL
T1 sequence (P08195 1-529 partner): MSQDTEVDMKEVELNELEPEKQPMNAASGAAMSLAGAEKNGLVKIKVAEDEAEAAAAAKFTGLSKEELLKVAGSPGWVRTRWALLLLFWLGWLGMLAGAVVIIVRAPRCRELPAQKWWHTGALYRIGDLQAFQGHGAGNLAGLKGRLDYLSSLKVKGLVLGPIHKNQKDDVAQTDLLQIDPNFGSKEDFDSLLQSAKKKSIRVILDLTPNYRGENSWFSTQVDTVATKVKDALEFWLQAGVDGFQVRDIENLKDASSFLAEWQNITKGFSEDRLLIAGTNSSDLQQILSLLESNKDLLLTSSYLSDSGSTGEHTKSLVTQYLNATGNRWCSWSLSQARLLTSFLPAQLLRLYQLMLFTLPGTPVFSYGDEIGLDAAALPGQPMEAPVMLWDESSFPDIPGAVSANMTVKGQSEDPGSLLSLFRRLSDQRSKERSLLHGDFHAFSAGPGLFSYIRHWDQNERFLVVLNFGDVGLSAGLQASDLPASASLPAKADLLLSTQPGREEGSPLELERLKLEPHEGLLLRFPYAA
The experiment in a line: [^14C]L-Cystine uptake assay. The class given is cell-based. The following applies: H4 cells, 15 min preincubation, 1 hour at 37° C., sodium-free HEPES buffer; read-out: [^14C] L-Cystine uptake assay (range of pIC50) (converted). The source says:
(§1) By measuring respectively, the concentration of glutamate released outside the cell and the L-cystine uptaken in the cell, with increasing concentrations of compounds of formula (I) according to the present invention, the efficacy of said compounds to inhibit the System Xc^− function can be evaluated.
(§2) The efficacy of the compounds to inhibit system Xc^− is represented by measuring the IC50 which corresponds to the concentration of compound necessary to inhibit 50% of the signals from the two control groups; DMSO 1% and Erastin 50 μM in the respective assays. pIC50 values correspond to −log of the IC50 in Molar.
In this assay, the medium is devoid of sodium to prevent the transport of glutamate by sodium-dependent excitatory amino acid transporters (EAATs). H4 cells were plated on a 96-well CytoStar-T scintillating microplate (PerkinElmer) at 5×10^4 cells/well in the medium described above. After 1 day, cells were washed one time with the sodium-free HEPES buffer and preincubated with test compounds of Formula (I) (1% final DMSO) for 15 min. Uptake was initiated by adding 0.5 μM L-[1,2, 1′,2′-^14C] Cystine (0.02 mCi/mL, PerkinElmer, Waltham, US) and 4.5 μM L-Cystine (Sigma-Aldrich). After 1 hour at 37° C., plates were counted in a MicroBeta^2 microplate counter (PerkinElmer).

The target of test [2] is T1, System Xc^− cystine/glutamate antiporter. Description: Cystine-induced glutamate release assay. The arrangement: endogenous in cells; host or cells: H4 cells. The following applies: H4 cells, 50 μM L-Cystine, 2 hours, sodium-free HEPES buffer; read-out: Cystine-induced glutamate release assay (range of pIC50) (converted). In kind it is cell-based.
Text: as §1, §2
Measurement of cystine-induced glutamate release indicates levels of glutamate (outside of the cell) that are dependent on system Xc^− antiporter function. Upon the addition of L-Cystine to H4 cells, intracellular glutamate is counter-transported and exported in the supernatant.
In this assay, the medium is devoid of sodium to prevent the transport of glutamate by sodium-dependent excitatory amino acid transporters (EAATs). H4 cells were plated on 384-well culture plate at 1×10^4 cells/well in Dulbecco's Modified Eagle Medium (DMEM) with L-glutamine, penicillin/streptomycin and 10% fetal bovine serum (all from ThermoFisher Scientific) and incubated in a humidified CO2 incubator at 37° C. After 2 days, cells were washed 4 times with prewarmed sodium-free HEPES buffer (contents in mM: HEPES 10, KCl 5.4, CaCl2 2.5, MgCl2 1, KH2PO4 0.4, D-Glucose 5, Choline chloride 140), pH 7.4. Glutamate release was induced by addition of 50 μM of L-Cystine (Sigma-Aldrich), together with a test compound of Formula (I) at 1% final DMSO concentration. After 2 hours of incubation in the culture incubator, supernatants were transferred to a low-binding polypropylene 384-well plate to determine L-glutamate concentration using Amplex™ Red Glutamic Acid Assay Kit (ThermoFisher Scientific). Briefly, 10 μL of Amplex™ Red working solution was added to 10 μL of the supernatant, then the mixture was incubated for 30 min at 37° C. Fluorescence intensity was measured by EnVision microplate reader (PerkinElmer).

Bounds are passed on as bounds.

Take `CC(=O)c1ccc(NC(=O)CN2C(=O)C(C)c3ncccc3-c3c2cc(C)nc3Cl)cc1` (single isomer, unassigned) [#6]: the IC50 in test [1] and in test [2] was under 15.8 nM each time.
As for `COc1cc2c(c(F)n1)-c1cccnc1C(C)C(=O)N2CC(=O)Nc1ccc(C(C)=O)cc1` (single isomer, unassigned) [#11], the IC50 in test [1] and in test [2] was 15.8 to 39.8 nM throughout.
On to `COc1cnc2c(c1)-c1cnc(C)cc1N(CC(=O)Nc1ccc(C(C)=O)cc1)C(=O)C2C` (single isomer, unassigned) [#12], for which the IC50 in test [1] and in test [2] was 39.8 to 100 nM each time.
As to `COc1nc(C)cc2c1-c1cccnc1C(C)C(=O)N2CC(=O)Nc1ccc(C(C)=O)cc1` (single isomer, unassigned) [#13], the IC50 was under 15.8 nM in test [1] and 15.8 to 39.8 nM in test [2].
Consider `COc1nccc2c1-c1cccnc1C(C)C(=O)N2CC(=O)Nc1ccc(C(C)=O)cc1` (single isomer, unassigned) [#14], for which the values for the IC50 in test [1] and in test [2] were 15.8 to 39.8 nM and 39.8 to 100 nM, respectively.
The corresponding values for `CC(=O)c1ccc(NC(=O)CN2C(=O)C(C)c3ncccc3-c3c2cc(C)nc3F)cc1O` (single isomer, unassigned) [#16] are under 15.8 nM and 15.8 to 39.8 nM.
The corresponding values for `COc1cc2c(c(F)n1)-c1cc(F)cnc1C(C)C(=O)N2CC(=O)Nc1ccc(C(C)=O)cc1` (single isomer, unassigned) [#17] are under 15.8 nM and 39.8 to 100 nM.
The matching figures for `Cc1cc2c(c(F)n1)-c1cc(F)cnc1C(C)C(=O)N2CC(=O)Nc1ccc2c(c1)OCC2=O` (single isomer, unassigned) [#18]: 39.8 to 100 nM and 39.8 to 100 nM.
In the case of `CC(=O)c1ccc(NC(=O)CN2C(=O)C(C)c3ncc(F)cc3-c3cc(C#N)c(C)cc32)cc1` (single isomer, unassigned) [#19], the IC50 in test [1] is under 15.8 nM; in test [2] it was 15.8 to 39.8 nM.
As for `COc1cnc2c(c1)-c1c(cc(C)nc1F)N(CC(=O)Nc1ccc(C(C)=O)cc1)C(=O)C2C` (single isomer, unassigned) [#20], the IC50 in test [1] was 15.8 to 39.8 nM; in test [2] it was 39.8 to 100 nM.
The matching figures for `CC(=O)c1ccc(NC(=O)CN2C(=O)C(C)c3ncccc3-c3c2cc(F)nc3F)cc1` (single isomer, unassigned) [#23]: 39.8 to 100 nM and 39.8 to 100 nM.
The corresponding values for `COc1cc2c(cn1)-c1cc(F)cnc1C(C)C(=O)N2CC(=O)Nc1ccc(C(C)=O)cc1` (single isomer, unassigned) [#32] are 15.8 to 39.8 nM and 100 to 501 nM.
Regarding `CC(=O)c1ccc(NC(=O)CN2C(=O)C(C)c3ncc(F)cc3-c3c2cc(C)nc3F)cc1O` (single isomer, unassigned) [#33], the IC50 in test [1] and in test [2] was under 15.8 nM each time.
As to `CC(=O)c1ccc(NC(=O)CN2C(=O)[C@H](C)c3ncccc3-c3c2cc(C)nc3F)cc1` [#1], the IC50 in test [1] and in test [2] was 15.8 to 39.8 nM each time.
On to `Cc1cc2c(c(F)n1)-c1cccnc1[C@@H](C)C(=O)N2CC(=O)Nc1ccc(C(=O)C2CC2)cc1` [#2], for which the IC50 in test [1] and in test [2] was 100 to 501 nM each time.
In the case of `CC(=O)c1ccc(NC(=O)CN2C(=O)[C@H](C)c3ncc(F)cc3-c3c2cc(C)nc3F)cc1` [#3], the IC50 in test [1] and in test [2] was 15.8 to 39.8 nM throughout.
Take `CC(=O)c1ccc(NC(=O)CN2C(=O)C(C)c3ncc(F)cc3-c3cnc(C)cc32)cc1` (stereo not shown) [#4]: the IC50 in test [1] and in test [2] was 39.8 to 100 nM each time.
As for `CC(=O)c1ccc(NC(=O)CN2C(=O)[C@H](C)c3ncc(F)cc3-c3c2cc(C)nc3Cl)cc1` [#5], the IC50 in test [1] and in test [2] was under 15.8 nM throughout.
Take `CC(=O)c1ccc(NC(=O)CN2C(=O)C(C)c3ncccc3-c3c2cc(N2CC(F)(F)C2)nc3F)cc1` (stereo not shown) [#7]: the figures for the IC50 in test [1] and in test [2] were under 15.8 nM and 39.8 to 100 nM, respectively.
`CC(=O)c1ccc(NC(=O)CN2C(=O)C(C)c3ncccc3-c3c2cc(N2CC(F)C2)nc3F)cc1` (stereo not shown) [#8]: the IC50 in test [1] and in test [2] was under 15.8 nM in each case.

These data come from US20260226057A1, “TRICYCLIC AZEPINONE DERIVATIVES AS SYSTEM XC INHIBITORS” (UCB BIOPHARMA SRL, priority 2023, published 2026).
